{"source": "patent US20260315563A1", "about": "“A NOVEL MENTHOL-EUCALYPTUS OIL ANTITUSSIVE SPRAY AND USE THEREOF” (SINO-SHINE BIOPHARMACEUTICAL CO.,LTD, priority 2023, published 2026)", "key": {"TRPV1": {"system": "TRPV1", "conditions": "in vivo; cited from earlier work"}, "[1]": {"system": "cough induction using LPS and citric acid", "test": "Animal Experiment 2: antitussive effect in LPS-citric acid cough model (inflammatory cough), guinea pigs", "format": "in vivo", "conditions": "for Cough Frequency / Cough Frequency Suppression Rate, Actual Value / Cough Latency: LPS + 0.2 M citric acid", "procedure": "160 guinea pigs, 250 g to 300 g each, half-male and half-female, certificate number 20220908Cdzz0412999409, were purchased from Xinjian Rabbit Farm, Dashiju Town, Xinchang County. The animals were reared at the general laboratory facility with 40% to 60% of humidity, and provided with a cycle of 12 h in the dark and 12 h in light. The animals could freely access to water and food. All operations and experimental procedures complied with the “Regulations on Animal Experiment Management.” • Production license: SCXK (Zhejiang) 2020-0005 • Application license: SCXK (Zhejiang) 2021-0019\nCurrently, there are barely reports on the models of inflammatory coughs in China and other countries. To closely mimic the occurrence of actual coughs in people suffering from acute respiratory infection, a novel inflammatory cough model was explored ahead of the projected experiments. This novel model was based on the citric acid-induced cough model, but the animals were subject to a LPS pretreatment before beginning with the cough provocation of citric acid.\nAfter 5 days of adaptive feeding, the animal was individually placed in a glass bell jar to allow adaptation for 1 min, and then administrated with the compressed aerosol of 0.4 M citric acid solution (instead of physiological saline for the blank control group) for 10 min. The frequency of cough was recorded during administration of the citric acid aerosol. The guinea pigs with a cough frequency of 10-30 were retained for the formal experiments later. The qualified guinea pigs were randomly divided into the corresponding groups (not fewer than 8 in each group) and were subjected to test the inhalation of the nebulized solvent, menthol, eucalyptus oil, or a combination of menthol and eucalyptus oil for 10 min. After an interval of 15 min post inhalation of the test drug, the animals were administered with the aerosol of 1 mg/mL LPS. 4 hours post the LPS nebulization, the animals were subjected to the second inhalation of the nebulized solvent, menthol, eucalyptus oil, or the combination of menthol and eucalyptus oil for 10 min. Fifteen minutes later, the aerosol of 0.2 M citric acid was administered for cough induction, and the process was recorded by video during the inhalation of citric acid. The duration from the inhalation of the nebulized citric acid to the emergence of first cough was designated as the latency. The control group used solvent for nebulization and cough evoking.\n• (1) 0.4 M citric acid: Citric acid was accurately weighed, added into an appropriate volume of pure water to make a final concentration of 0.4 mol/L, and completely dissolved by sonication. • (2) 0.2 M citric acid: Citric acid was accurately weighed, added into an appropriate volume of pure water to make a final concentration of 0.2 mol/L, and completely dissolved by sonication. • (3) Codeine: Codeine was accurately weighed, placed in a mortar and grounded repeatedly, added into an appropriate amount of physiological saline and completely dissolved by sonication. • (4) LPS preparation: LPS was accurately weighed, added into an appropriate amount of physiological saline to make a final concentration of 1 mg/mL, and completely dissolved by vortexing. • (5) Preparations of testing drugs: Initially, 4 g of menthol was dissolved in 10 mL of olive oil (menthol group), or 0.45 mL of eucalyptus oil was sufficiently mixed with 9.55 mL of olive oil (eucalyptus oil group). Afterwards, 5 g of soybean lecithin (previously cut into small pieces) was added to 10 mL of olive oil (control group) or each of the drug groups above, and dissolved by slowly stirring to form a uniform oil phase at 42° C. in a water bath. Further, double distilled water was slowly added to each group in oil phase on a magnetic stirrer and fully emulsified by sufficiently stirring to mix the oil phase with water. […]"}, "[2]": {"system": "sodium citrate-evoked coughs", "test": "Animal Experiment 1: antitussive effect in sodium citrate (citric acid)-evoked cough, guinea pigs", "format": "in vivo", "conditions": "for Cough Frequency / Cough Latency / Inhibition Rate of Cough: nebulization 10 min, 0.4 M citric acid; for Inhibition Rate of Cough: original model", "procedure": "100 guinea pigs, 250 g to 300 g each, half-male and half-female, were purchased from Beijing Vital River Experimental Animal Technology Co., Ltd., referred to Certificate Numbers 110011220104932418, 110011220104932542. The animals were reared at the general laboratory facility with 40% to 60% of humidity, and provided with a cycle of light: 12 h in dark and 12 h in light. The animals could freely access to water and food. All operations and experimental procedures complied with the “Regulations on Animal Experiment Management.”\nAt the initial screening step, each guinea pig was individually placed in a glass bell jar to allow adaptation for 1 min and then administered with a compressed aerosol of 0.4 M citric acid solution (instead of physiological saline for the blank control group) for 10 min. The frequency of cough was recorded during administration of the aerosol. The guinea pigs with a cough frequency of 10-30 were retained for the formal experiments later. The qualified guinea pigs were randomly divided into the corresponding groups (not fewer than 10 in each group) and were subjected to test the inhalation of the nebulized solvent, menthol, eucalyptus oil, or a combination of menthol and eucalyptus oil for 10 min. After an interval of 10 min post-inhalation of the test drug, 0.4 M citric acid solution was nebulized and given for inhalation, and the cough frequency was recorded by video from the beginning to the end of the administration of citric acid aerosol. The latency of cough is defined as the period from the inhalation of nebulized citric acid to the appearance of the first cough. The videos were recorded during the period of cough provocation in the experiment.\n• (1) 0.4 M sodium citrate: Sodium citrate was accurately weighed, added into an appropriate volume of pure water, completely dissolved by sonication, and finally diluted to 0.4 M for use later. • (2) Codeine: Codeine was accurately weighed, grounded sufficiently in a mortar, transferred into an appropriate amount of physiological saline, and dissolved by sonication. • (3) Preparations of testing drugs: Initially, an oil phase was prepared by dissolving 2 g of menthol in 10 mL of olive oil (menthol group); or well mixing 3.6 mL of eucalyptus oil with 6.4 mL of olive oil (eucalyptus oil group); or adding 2 g of menthol and 3.6 mL of eucalyptus oil/0.6 g of menthol and 3.6 mL of eucalyptus oil/2 g of menthol and 1.2 mL of eucalyptus oil respectively in a corresponding volume of olive oil to make a final 10 mL solution (menthol+eucalyptus oil groups). Afterwards, 5 g of soybean lecithin (cut into small pieces beforehand) was added to 10 mL of olive oil (control group) or each of the drug groups above and dissolved by slowly stirring to form a uniform oil phase at 42° C. in a water bath. Further, double distilled water was slowly added to each group in oil phase on a magnetic stirrer and fully emulsified by sufficiently stirring to mix the oil phase with water. A final emulsion was prepared in a volume of 100 mL and could be further diluted to make a working preparation with the specific concentration of drug (or drugs).\nAll experimental data were expressed as mean±SEM, and the data-processing software SSPS16.0 was used to conduct the analysis of variance and inter-group t-test. The conclusions were made by comprehensively analyzing all data."}, "coughs": {"system": "coughs", "conditions": "in vivo; cited from earlier work"}, "[3]": {"system": "inflammatory factors, such as leukotriene B4 (LTB4), prostaglandin (PGE2), and a variety of cytokines", "conditions": "cited from earlier work"}, "asthma": {"system": "asthma", "conditions": "clinical trials for asthma; cited from earlier work"}, "[4]": {"system": "capsaicin-guinea pig model", "conditions": "cited from earlier work"}, "TRPM8": {"system": "TRPM8", "conditions": "cooling effect; membrane potential depolarization and Ca2+ influx; cited from earlier work"}, "[5]": {"conditions": "2% menthol, 3.6% eucalyptus oil, combinations, or 30 mg/mL codeine phosphate, P<0.01"}}, "note": "Where “and” joins values, the source holds several entries; their conditions need not be identical. Identical values can stand only once. Entries after “also recorded” stand apart in the source; their conditions may differ. Counter-ions that a name gives are not always drawn."}
{"smiles": "COc1cc(CNC(=O)CCCC/C=C/C(C)C)ccc1O", "note": "[Capsaicin]", "values": [{"measurement": "Cough induction by TRPV1 agonists (in words)", "setting": "TRPV1", "result": "evoke coughs in humans and guinea pigs"}]}
{"smiles": "O=C(O)CC(O)(CC(=O)O)C(=O)O", "note": "[Citric acid]", "values": [{"measurement": "Cough induction (in words)", "setting": "[1]; 0.2 M citric acid after LPS, P<0.01 vs blank control", "result": "significantly induce coughs"}]}
{"smiles": "COc1ccc2c3c1O[C@H]1[C@@H](O)C=C[C@H]4[C@@H](C2)N(C)CC[C@@]341", "note": "[Codeine phosphate]", "values": [{"measurement": "Cough Frequency", "setting": "[2]; 30 mg/mL codeine phosphate", "result": "7.90 ± 1.61", "unit": "times"}, {"measurement": "Cough Latency", "setting": "[2]; 30 mg/mL codeine phosphate", "result": "158.30 ± 17.46", "unit": "s"}, {"measurement": "Inhibition Rate of Cough", "setting": "[2]; 30 mg/mL codeine phosphate", "result": "57.30 ± 8.70", "unit": "%"}, {"measurement": "Cough Frequency", "setting": "[1]; 30 mg/mL codeine", "result": "8.44 ± 0.71"}, {"measurement": "Cough Frequency Suppression Rate, Actual Value", "setting": "[1]; 30 mg/mL codeine", "result": "55.29 ± 3.86", "unit": "%"}, {"measurement": "Cough Latency", "setting": "[1]; 30 mg/mL codeine", "result": "134.78 ± 9.72", "unit": "s"}]}
{"smiles": "CC12CCC(CC1)C(C)(C)O2", "note": "[Eucalyptol, 1,8-Cineol]", "values": [{"measurement": "Antitussive effect in human clinical trials (in words)", "setting": "coughs", "result": "proven to have anti-inflammatory and antitussive effects in clinical trials; also recorded: confirmed in clinical trials"}, {"measurement": "Anti-inflammatory effect (in words)", "setting": "[3]", "result": "effective anti-inflammatory agent"}, {"measurement": "Replacement of glucocorticoids in asthma (in words)", "setting": "asthma", "result": "partially replace the use of glucocorticoids"}]}
{"smiles": "CC(C)[C@@H]1CC[C@@H](C)C[C@H]1O", "note": "[Menthol, L-1-methyl-4-isopropylcyclohexan-3-ol]", "values": [{"measurement": "Effect on frequency of coughs / antitussive effect (in words)", "setting": "[2]; [5]", "result": "reduced the frequency of coughs; also recorded: reduced the cough frequency; also recorded: show antitussive effects"}, {"measurement": "Effect on latency of coughs (in words)", "setting": "[2]; [5]", "result": "significantly increased the cough latency"}, {"measurement": "Cough Frequency", "setting": "[2]; 2% menthol", "result": "11.58 ± 1.72", "unit": "times"}, {"measurement": "Cough Latency", "setting": "[2]; 2% menthol", "result": "155.50 ± 20.43", "unit": "s"}, {"measurement": "Inhibition Rate of Cough", "setting": "[2]; 2% menthol", "result": "37.39 ± 9.30", "unit": "%"}, {"measurement": "Inhibition Rate of Cough", "setting": "[2]; 2% menthol, listed as menthol", "result": "37.39% and 37.39 ± 9.30 %"}, {"measurement": "Cough Frequency", "setting": "[1]; 0.06% menthol", "result": "16.50 ± 1.78"}, {"measurement": "Cough Frequency Suppression Rate, Actual Value", "setting": "[1]; 0.06% menthol", "result": "12.65 ± 9.44", "unit": "%"}, {"measurement": "Cough Latency", "setting": "[1]; 0.06% menthol", "result": "104.88 ± 10.85", "unit": "s"}, {"measurement": "Cough Frequency", "setting": "[1]; 0.25% menthol", "result": "14.88 ± 1.90"}, {"measurement": "Cough Frequency Suppression Rate, Actual Value", "setting": "[1]; 0.25% menthol", "result": "21.25 ± 10.08", "unit": "%"}, {"measurement": "Cough Latency", "setting": "[1]; 0.25% menthol", "result": "88.75 ± 15.96", "unit": "s"}, {"measurement": "Statistical significance of cough suppression (in words)", "setting": "[1]; 1.0% and 4% menthol, 0.15% and 0.45% eucalyptus oil, P<0.01-0.05", "result": "statistical significance; also recorded: statistically attained the significance in cough suppression"}, {"measurement": "Cough Frequency", "setting": "[1]; 1.0% menthol", "result": "13.13 ± 0.55"}, {"measurement": "Cough Frequency Suppression Rate, Actual Value", "setting": "[1]; 1.0% menthol", "result": "28.53 ± 3.00", "unit": "%"}, {"measurement": "Cough Latency", "setting": "[1]; 1.0% menthol", "result": "116.38 ± 11.30", "unit": "s"}, {"measurement": "Cough Frequency Suppression Rate, Actual Value", "setting": "[1]; 1.0% menthol, listed as menthol", "result": "28.53 ± 3.00", "unit": "%"}, {"measurement": "Cough Frequency", "setting": "[1]; 4.0% menthol", "result": "11.38 ± 0.82"}, {"measurement": "Cough Frequency Suppression Rate, Actual Value", "setting": "[1]; 4.0% menthol", "result": "39.78 ± 4.35", "unit": "%"}, {"measurement": "Cough Latency", "setting": "[1]; 4.0% menthol", "result": "128.13 ± 13.84", "unit": "s"}, {"measurement": "Cough Frequency Suppression Rate, Actual Value", "setting": "[1]; 4.0% menthol, listed as menthol", "result": "39.78% and 39.78 ± 4.35 %"}, {"measurement": "Effect on frequency of coughs (in words)", "setting": "[1]; menthol 0.06-4%, eucalyptus oil 0.05-0.45%, combinations 0.06-1.0% + 0.05-0.15%, codeine 30 mg/mL", "result": "reduce the frequency of coughs in a dose-dependent manner"}, {"measurement": "Efficacy on inflammatory coughs compared with original model (in words)", "setting": "[1]; novel LPS-citric acid model vs original citric acid model", "result": "reduced; also recorded: better activities on non-inflammatory coughs; also recorded: declined"}, {"measurement": "Antitussive effect on capsaicin-evoked coughs (in words)", "setting": "[4]", "result": "effectively suppress coughs; also recorded: significantly suppressed"}, {"measurement": "Activation of TRPM8 (in words)", "setting": "TRPM8", "result": "Activation of TRPM8"}, {"measurement": "Antitussive effect in human clinical trials (in words)", "setting": "coughs", "result": "well verified in human clinical trials"}]}
{"smiles": "O=C(O)CC(O)(CC(=O)O)C(=O)O", "note": "[Sodium citrate]", "values": [{"measurement": "Cough induction (in words)", "setting": "[2]; 0.4 M sodium citrate, P<0.01 vs control", "result": "significantly evoke coughing in guinea pigs"}, {"measurement": "Cough induction by TRPV1 agonists (in words)", "setting": "TRPV1", "result": "evoke coughs in humans and guinea pigs"}]}
